# According to patent publication US7858611B2, “Neurogenesis by modulating angiotensin” (BrainCells Inc., priority 2006, dated 2010):
# Where two headings read alike, the source gives them in different places.
# Legend:
# [1] = tested on: human neural stem cells (hNSCs); experiment: Neuronal differentiation of human neural stem cells (TUJ-1 antibody staining); type: cell-based; conditions: for EC50: Homo sapiens, Neural stem cell, read-out: EC50 for neuronal differentiation; for effect on neuronal differentiation: dose response
# Text: (§1) Mitogen-free test media with a positive control for neuronal differentiation was used along with basal media without growth factors as a negative control.
# as §1, §1, §1, §1
# (§2) Human neural stem cells (hNSCs) were isolated and grown in monolayer culture, plated, treated with varying concentrations of benazepril (test compound), and stained with TUJ-1 antibody, as described above. Mitogen-free test media with a positive control for neuronal differentiation was used along with basal media without growth factors as a negative control.
# as §2, with “trandolapril” for “benazepril”, “described in” for “described”
# as §2, with “candesartan” for “benazepril”, “described in” for “described”
# as §2, with “telmisartan” for “benazepril”, “described in” for “described”
# as §2, with “ibudilast and/or captopril” for “benazepril”, “compounds),” for “compound),”
# as §2, with “enoximone and/or captopril” for “benazepril”, “compounds),” for “compound),”
# as §2, with “ibudilast and/or candesartan” for “benazepril”, “compounds),” for “compound),”
# as §2, with “baclofen and/or captopril” for “benazepril”, “compounds),” for “compound),”
# Human neural stem cells (hNSCs) were isolated and grown in monolayer culture, plated, treated with varying concentrations of donepezil and/or captopril (test compounds), and stained with TUJ-1 antibody, as described above.
# [2] = tested on: KA, AMPA, and NMDA iGlu receptors; conditions: cited from earlier work
# [3] = tested on: mGlu7 and mGlu8; conditions: at higher concentrations (e.g., above 1 μM); cited from earlier work
# [4] = target: human mGlu2 receptors (Homo sapiens, UniProt Q14416); conditions: in vitro; low nanomolar range; read-out: EC50 against human mGlu2 receptors; cited from earlier work
# human mGlu2 receptors, sequence (Q14416 19-872): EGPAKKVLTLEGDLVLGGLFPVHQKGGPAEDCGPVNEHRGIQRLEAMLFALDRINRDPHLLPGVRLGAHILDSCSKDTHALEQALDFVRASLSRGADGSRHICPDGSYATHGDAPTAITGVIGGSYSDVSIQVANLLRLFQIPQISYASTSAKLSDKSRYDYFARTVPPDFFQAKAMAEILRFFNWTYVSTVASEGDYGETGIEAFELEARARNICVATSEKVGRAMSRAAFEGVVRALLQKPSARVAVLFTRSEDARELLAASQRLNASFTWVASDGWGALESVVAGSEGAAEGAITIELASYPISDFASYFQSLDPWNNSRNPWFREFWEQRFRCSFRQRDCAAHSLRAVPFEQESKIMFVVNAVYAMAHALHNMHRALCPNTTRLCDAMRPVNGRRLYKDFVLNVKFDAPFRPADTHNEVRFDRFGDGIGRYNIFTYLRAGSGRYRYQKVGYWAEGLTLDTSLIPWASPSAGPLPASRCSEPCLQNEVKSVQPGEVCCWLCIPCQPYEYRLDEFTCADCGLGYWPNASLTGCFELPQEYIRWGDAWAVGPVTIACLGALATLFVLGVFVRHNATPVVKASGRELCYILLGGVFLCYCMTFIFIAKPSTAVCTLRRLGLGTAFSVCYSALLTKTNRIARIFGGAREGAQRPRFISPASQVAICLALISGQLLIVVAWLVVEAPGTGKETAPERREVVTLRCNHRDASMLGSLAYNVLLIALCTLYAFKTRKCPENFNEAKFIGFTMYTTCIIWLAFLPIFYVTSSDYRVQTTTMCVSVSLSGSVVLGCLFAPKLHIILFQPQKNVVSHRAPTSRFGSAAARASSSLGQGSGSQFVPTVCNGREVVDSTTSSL
# [5] = target: human mGlu3 receptors (Homo sapiens, UniProt Q14832); conditions: in vitro; low nanomolar range; read-out: EC50 against human mGlu3 receptors; cited from earlier work
# human mGlu3 receptors, sequence (Q14832 23-879): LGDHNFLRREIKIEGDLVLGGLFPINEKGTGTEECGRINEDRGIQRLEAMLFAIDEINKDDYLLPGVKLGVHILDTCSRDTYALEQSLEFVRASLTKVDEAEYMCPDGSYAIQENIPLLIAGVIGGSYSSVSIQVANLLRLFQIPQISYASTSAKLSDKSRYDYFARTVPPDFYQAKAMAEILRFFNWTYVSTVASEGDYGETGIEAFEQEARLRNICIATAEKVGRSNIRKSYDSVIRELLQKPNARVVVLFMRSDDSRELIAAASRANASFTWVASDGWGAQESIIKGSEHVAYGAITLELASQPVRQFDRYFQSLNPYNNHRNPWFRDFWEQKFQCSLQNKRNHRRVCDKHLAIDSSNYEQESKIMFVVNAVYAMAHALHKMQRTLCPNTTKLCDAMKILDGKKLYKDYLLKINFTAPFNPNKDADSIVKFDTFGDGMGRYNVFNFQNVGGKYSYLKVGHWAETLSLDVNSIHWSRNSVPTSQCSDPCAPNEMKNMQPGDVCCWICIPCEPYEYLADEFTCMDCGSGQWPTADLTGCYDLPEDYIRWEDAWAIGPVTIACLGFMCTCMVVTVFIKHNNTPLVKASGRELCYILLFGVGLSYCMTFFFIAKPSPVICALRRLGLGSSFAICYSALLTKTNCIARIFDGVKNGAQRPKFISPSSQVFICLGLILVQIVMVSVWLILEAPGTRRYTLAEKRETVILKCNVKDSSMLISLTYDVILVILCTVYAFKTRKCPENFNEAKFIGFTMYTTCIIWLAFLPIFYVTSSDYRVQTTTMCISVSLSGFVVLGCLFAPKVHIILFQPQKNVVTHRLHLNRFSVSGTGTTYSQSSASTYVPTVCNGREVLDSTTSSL
# [6] = target: mGluR2 (Homo sapiens, UniProt Q14416); conditions: read-out: IC50 against mGluR2; cited from earlier work
# mGluR2, sequence (Q14416 19-872): as the sequence (Q14416 19-872) above
# [7] = target: mGluR3 (Homo sapiens, UniProt Q14832); conditions: read-out: IC50 against mGluR3; cited from earlier work
# mGluR3, sequence (Q14832 23-879): as the sequence (Q14832 23-879) above
# [8] = tested on: Group I or Group III receptors; conditions: at sub-mM concentrations; cited from earlier work
# [9] = agent alone, percentage of neuronal positive control, basal media values subtracted
# [10] = agent alone, FIG. 6-9, percentage of neuronal positive control, basal media values subtracted
SMILES,"EC50 [1, 9]",effect on neuronal differentiation ([1]; agent alone),other results
COc1cc2c(cc1OC)C(=O)C(CC1CCN(Cc3ccccc3)CC1)C2 (stereo not shown) [donepezil],,,EC50 [1]: 2 µM
CSc1ccc(C(=O)c2[nH]c(=O)[nH]c2C)cc1 [enoximone],6.8 µM,,
"NCCCC[C@H](N[C@@H](CCc1ccccc1)C(=O)O)C(=O)N1CCC[C@H]1C(=O)O [lisinopril, (S)-1-(N(sup 2)-(1-carboxy-3-phenylpropyl)-L-lysyl)-L-proline]",9.1 µM,promoted neuronal differentiation,
"CCOC(=O)[C@H](CCc1ccccc1)N[C@H]1CCc2ccccc2N(CC(=O)O)C1=O [benazepril, 2-[4-(1-ethoxycarbonyl-3-phenyl-propyl)amino-5-oxo-6-azabicyclo[5.4.0]undeca-7,9,11-trien-6-yl]acetic acid]",,promoted neuronal differentiation,"EC50 [1, 10]: 3.3 µM"
"CCOc1nc2cccc(C(=O)O)c2n1Cc1ccc(-c2ccccc2-c2nnn[nH]2)cc1 [candesartan, 2-ethoxy-3-[[4-[2-(2H-tetrazol-5-yl)phenyl]phenyl]methyl]-3H-benzoimidazole-4-carboxylic acid]",2.2 µM,promoted neuronal differentiation,"EC50 [1, 10]: ~0.84 µM"
"N[C@](CC1c2ccccc2Oc2ccccc21)(C(=O)O)[C@H]1C[C@@H]1C(=O)O [LY341495, (2S)-2-amino-2-(1S,2S-2-carboxycycloprop-1-yl)-3-(xanth-9-yl)propanoic acid]",,,"activity against KA, AMPA, and NMDA iGlu receptors [2]: substantially inactive; activity against mGlu7 and mGlu8 [3]: antagonist activity"
"CC(=O)SC[C@@H](C)C(=O)N1CCC[C@H]1C(=O)N[C@@H](Cc1ccccc1)C(=O)O [alacepril, 1-(D-3-acetylthio-2-methylpropanoyl)-L-prolyl-L-phenylalanine]",13 µM,promoted neuronal differentiation,
"CCOC(=O)[C@H](CCc1ccccc1)N[C@@H](C)C(=O)N1CCC[C@H]1C(=O)O [enalapril, (S)-1-[N-[1-(ethoxycarbonyl)-3-phenylpropyl]-1-alanyl]-1-proline]",0.5 µM,promoted neuronal differentiation,
"N[C@@]1(C(=O)O)CO[C@H]2[C@H](C(=O)O)[C@H]21 [LY379268, (−)-2-oxa-4-aminobicyclohexane-4,6-dicarboxylic acid]",,,EC50 [4]: < 0.01 µM; EC50 [5]: < 0.01 µM
"CCCc1nc2c(C)cc(-c3nc4ccccc4n3C)cc2n1Cc1ccc(-c2ccccc2C(=O)O)cc1 [telmisartan, 2-[4-[[4-methyl-6-(1-methylbenzoimidazol-2-yl)-2-propyl-benzoimidazol-1-yl]methyl]phenyl]benzoic acid]",0.06 µM,promoted neuronal differentiation,"EC50 [1, 10]: ~0.03 µM"
COc1ccc(C2CNC(=O)C2)cc1OC1CCCC1 (stereo not shown) [rolipram],2.3 µM,,
"CCCCc1nc(Cl)c(CO)n1Cc1ccc(-c2ccccc2-c2nnn[nH]2)cc1 [losartan, [2-butyl-5-chloro-3-[[4-[2-(2H-tetrazol-5-yl)phenyl]phenyl]methyl]-3H-imidazol-4-yl]methanol]",0.9 µM,promoted neuronal differentiation,
CCCc1nc(C)c2c(=O)[nH]c(-c3cc(S(=O)(=O)N4CCN(CC)CC4)ccc3OCC)nn12 [vardenafil],8.6 µM,,
NCC(CC(=O)O)c1ccc(Cl)cc1 (stereo not shown) [baclofen],3.2 µM,,
"CCOC(=O)C(CCc1ccccc1)NC(C)C(=O)N1C(C(=O)O)CC2CCCCC21 (stereo not shown) [trandolapril, 1-[2-[(1-ethoxycarbonyl-3-phenyl-propyl)amino]propanoyl]-2,3,3a,4,5,6,7,7a-octahydroindole-2-carboxylic acid]",,promoted neuronal differentiation,"EC50 [1, 10]: ~35 µM"
Cn1c(=O)c2[nH]cnc2n(C)c1=O [theophylline],16.4 µM,,
"C[C@H](CS)C(=O)N1CCC[C@H]1C(=O)O [captopril, 1-[(2S)-3-mercapto-2-methylpropionyl]-1-proline]",3.8 µM,promoted neuronal differentiation,
"NC1(C(=O)O)CCc2cc(P(=O)(O)O)ccc21 (racemic) [APICA, (RS)-1-amino-5-phosphonoindan-1-carboxylic acid]",,,IC50 [6]: ~30 µM; IC50 [7]: ~30 µM; activity against Group I or Group III receptors [8]: no appreciable activity
CC(C)C(=O)c1c(C(C)C)nn2ccccc12 [ibudilast],6.2 µM,,
